A short description of assay [1]: ABTS radical cation scavenging assay. As for the experimental part: The 2,2′-azino-bis (3-ethylbenzothiazoline-6-sulfonic acid) diammonium salt (ABTS) assay was performed according to Re et al. and modified by Oki et al. for its use in microplates. Samples were diluted in methanol. An ABTS^•+ stock solution was prepared by adding 44 μL of potassium persulfate (140 mmol/L) to a 2.5 mL ABTS^•+ aqueous solution (7 mmol/L). The working solution of the radical ABTS^+ was prepared by diluting the stock solution 1:75 (v/v) in a sodium phosphate buffer (5 mmol/L, pH 7.4) to obtain an absorbance value of 0.7±0.02 at 734 nm. Samples (30 μL) were added to 270 μL of the working solution of ABTS^•+ in a microplate. Absorbance was measured at 734 nm and 30 °C for 20 min, every 5 min in a Synergy HT plate spectrophotometer (Biotek Instruments, Winoosky, VT, USA). A calibration curve was made with Trolox (20–250 μM). All samples were analyzed in triplicate. Results were expressed in μmol TE/μmol of pure compound, as for the ORAC assays.

Assay [2] is described as follows: DPPH free radical scavenging assay (RSA). The procedure:
For the 2,2′-diphenylpicrylhydrazyl (DPPH) assay, antioxidant compounds were dissolved in ethanol with a stock concentration of 4 mM and stirred for 24 h. DPPH (Alfa Aesar) was also dissolved in ethanol at 0.127 mM. Different compound solutions were prepared by serial dilutions of each stock solution ([…]). […] Amounts of 80 µL of each solution and 80 µL of DPPH were added in a 96-well plate. The absorbance was measured at different times (10, 20 and 30 min and 1 and 2 h) by a Multi-Detection Microplate Reader Synergy HT (λMAX = 515 nm). Radical scavenging activity (RSA, %) was calculated using Equation (1) (1) RSA(%)=ADPPH−AEXTRACT/ADPPH·100 where AEXTRACT and ADPPH correspond to the absorbance of DPPH with and without the extracts, respectively. Eight replicates were used for each compound and results were expressed as mean value ± standard deviation. The RSA half-maximal inhibitory concentration (IC50) values were calculated from the relationship curve of RSA versus concentrations by a non-linear fit using the software GraphPad Prism 7.
For orientation: DPPH is a stable violet radical that fades when it is reduced.

As usually defined, the IC50 is the midpoint of a concentration-inhibition curve.

Where two headings read alike, the source gives them in different places.

Consider `O=C(Nc1ccc(O)cc1)N(c1ccc(O)cc1)c1ccc(O)cc1` [Compound 17, N,N-bis(4-Hydroxyphenyl)-N′-(4′-hydroxyphenyl)urea], for which, in assay [1], the ABTS is 3.57 ± 0.00 µmol of trolox/µmol of pure compound. In addition, the “concentration down to which RSA ability is maintained independently of time” value in assay [2] (10 min to 2 h) turned out to be 0.25 mM. The “RSA capacity fold higher compared to resveratrol” value in assay [2] (after 10 min, from IC50) was 3.7 fold. The IC50 in assay [2] (compound needed to reach 50% RSA after 10 min, read-out: DPPH PSA IC50 10 min) was determined as 17.9 µM; in assay [2] (read-out: DPPH PSA IC50 2 h, compound needed to reach 50% RSA after 2 h) it was 9.6 µM. Also, the RSA percentage in assay [2] (highest concentration 2 mM, 10 min) is on record as about 72%.

The values are drawn from paper PMC7555119, “Characterization of Novel Synthetic Polyphenols: Validation of Antioxidant and Vasculoprotective Activities” (Antioxidants, 2020).
